Test results as given in patent US20230091047A1 (priority 2019, published 2023).
Where two headings read alike, the source gives them in different places.

Legend:
[1] = test system: HBV (HepG2.117 cell line, inducibly HBV producing); assay: Anti-HBV activity: intracellular HBV DNA by real-time PCR in HepG2.117 cells after 3 days of treatment; format: cell-based, hepatitis B virus; conditions: read-out: EC50 (μM, mean value)
Outline: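 Readout is intracellular HBV DNA, measured by real-time PCR with HBV-specific primers and probe after 3 days of exposure to serial compound dilutions. Cells are the stable HepG2.117 line, where HBV replication is induced in the absence of doxycycline.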

in vitro = format: cell-based; conditions: HepG2 or HepG2.117 cells, ATPlite, mean value
Outline: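 Luminescent ATP quantitation served as the viability endpoint following a 3- or 4-day incubation with test compounds.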

[2] = Hepatitis B virus, HepG2.117, 72 h, HepG2.117 cells, 3 days of treatment, intracellular HBV DNA by real-time PCR, mean value
[3] = human, 3-days incubation (unmarked values)
[4] = Hepatitis B virus, HepG2.117, 72 h, HepG2.117 cells, intracellular HBV DNA by real-time PCR, 3 days of treatment, mean value
[5] = human, 3-days incubation (not marked with *)

Row | SMILES | EC50 [1, 2] [µM] | CC50 at 3 days (in vitro; [3]) [µM] | EC50 [1, 4] [µM] | CC50 at 3 days (in vitro; [5]) [µM] | further results
1 | COc1ccc(CNc2nc3c(c(=O)n2-c2cccnc2C)CCN(C(=O)c2ccc(Cl)c(Cl)c2)C3)cc1 [Compound C96, 7-(3,4-dichlorobenzoyl)-2-{[(4-methoxyphenyl)methyl]amino}-3-(2-methylpyridin-3-yl)-5,6,7,8-tetrahydropyrido[3,4-d]pyrimidin-4(3H)-one] | 0.65 | 24.3 | – | – | –
2 | CNC(=O)c1ccc(-n2c(NC(C)C)nc3c(c2=O)C[C@@H](C)N(C(=O)c2cc4sc(Br)cc4[nH]2)C3)cc1 [Compound C591] | – | – | 0.01 | 23.2 | –
3 | CNC(=O)c1ccc(-n2c(NC(C)C)nc3c(c2=O)C[C@@H](C)N(C(=O)c2ccc(Cl)c(Cl)c2)C3)cc1F [Compound C274, 4-[(6R)-7-(3,4-dichlorobenzoyl)-6-methyl-4-oxo-2-[(propan-2-yl)amino]-5,6,7,8-tetrahydropyrido[3,4-d]pyrimidin-3(4H)-yl]-2-fluoro-N-methylbenzamide] | 0.09 | > 50 | – | – | –
4 | COc1ccc(CNc2nc3c(c(=O)n2-c2ccncc2)CCN(C(=O)c2ccc(Cl)c(Cl)c2)C3)cc1 [Compound C123, 7-(3,4-dichlorobenzoyl)-2-{[(4-methoxyphenyl)methyl]amino}-3-(pyridin-4-yl)-5,6,7,8-tetrahydropyrido[3,4-d]pyrimidin-4(3H)-one] | 1.23 | 24.4 | – | – | –
5 | CNC(=O)c1ccc(-n2c(NC(C)C)nc3c(c2=O)C[C@@H](C)N(C(=O)c2ccc4nnn(C)c4c2)C3)cc1 [Compound C474] | – | – | > 25 | > 50 | –
6 | CNC(=O)c1ccc(-n2c(NC(C)C)nc3c(c2=O)C[C@@H](C)N(C(=O)c2cc(C)c(C)c(Br)c2)C3)cc1 [Compound C578] | – | – | 0.11 | 33.2 | –
7 | CNC(=O)c1ccc(-n2c(NCc3ccc(-c4nc[nH]n4)cc3)nc3c(c2=O)C[C@@H](C)N(C(=O)c2ccc(Cl)c(Cl)c2)C3)cc1 [Compound C468] | – | – | 18.8 | > 50 | –
8 | CC(C)Nc1nc2c(c(=O)n1-c1ccc(-c3cscn3)cc1)CCN(C(=O)c1ccc(Cl)c(Cl)c1)C2 [Compound C170, 7-(3,4-dichlorobenzoyl)-2-[(propan-2-yl)amino]-3-[4-(1,3-thiazol-4-yl)phenyl]-5,6,7,8-tetrahydropyrido[3,4-d]pyrimidin-4(3H)-one] | 0.53 | > 50 | – | – | –
9 | CNC(=O)c1ccc(-n2c(NC(C)C)nc3c(c2=O)C[C@@H](C)N(C(=O)c2ccc(Cl)cc2F)C3)cc1 [Compound C520] | – | – | 3.74 | > 50 | –
10 | CNC(=O)c1ccc(-n2c(NC(C)C)nc3c(c2=O)C[C@@H](C)N(C(=O)c2ccc(Cl)c(Cl)c2)C3)c(C(C)C)c1 [Compound C420] | – | – | – | 25 | EC50 ([1]; HepG2.117 cells, intracellular HBV DNA by real-time PCR, 3 days of treatment, mean value): 0.61 µM
11 | CC(C)Nc1nc2c(c(=O)n1-c1ccc(C(=O)N3CCOCC3)cc1)C[C@@H](C)N(C(=O)c1ccc(Cl)c(Cl)c1)C2 [Compound C168, (6R)-7-(3,4-dichlorobenzoyl)-6-methyl-3-[4-(morpholine-4-carbonyl)phenyl]-2-[(propan-2-yl)amino]-5,6,7,8-tetrahydropyrido[3,4-d]pyrimidin-4(3H)-one] | 0.24 | > 50 | – | – | –
12 | COc1ccc(Cn2c(N)nc3c(c2=O)CCN(C(=O)c2ccc(Cl)c(Cl)c2)C3)cc1 [Compound C76, 2-amino-7-(3,4-dichlorobenzoyl)-3-[(4-methoxyphenyl)methyl]-5,6,7,8-tetrahydropyrido[3,4-d]pyrimidin-4(3H)-one] | 9.63 | 7.1 | – | – | –
13 | CNC(=O)c1ccc(-n2c(N[C@@H](C)c3ccc(OC)c(OC)c3)nc3c(c2=O)C[C@@H](C)N(C(=O)c2ccc(Cl)c(Cl)c2)C3)cc1 (single isomer, unassigned) [Compound C415b] | – | – | 0.12 | 27.6 | –
14 | CNC(=O)c1ccc(-n2c(NC(C)C)nc3c(c2=O)C[C@@H](C)N(C(=O)c2cc4c(Br)cc(Cl)cc4[nH]2)C3)cc1 [Compound C576] | – | – | 0.05 | > 50 | –
15 | CNC(=O)c1ccc(-n2c(NC(C)C)nc3c(c2=O)C[C@@H](C)N(C(=O)c2ccc(Cl)c(C(F)(F)F)c2)C3)c(C2CC2)c1 [Compound C661] | – | – | 0.07 | 25 | –
16 | CNC(=O)c1ccc(-n2c(N[C@H](C)C3CCC3)nc3c(c2=O)C[C@@H](C)N(C(=O)c2ccc(Cl)c(Cl)c2)C3)cc1 (single isomer, unassigned) [Compound C406a] | – | – | 0.18 | 31.3 | –

Row | SMILES | EC50 [1, 2] [µM] | CC50 at 3 days (in vitro; [3]) [µM] | EC50 [1, 4] [µM] | CC50 at 3 days (in vitro; [5]) [µM] | further results
17 | CNC(=O)c1ccc(-n2c(NC(C)C)nc3c(c2=O)C[C@@H](C)N(C(=O)c2n[nH]c4ccc(Cl)cc24)C3)cc1 [Compound C473] | – | – | > 25 | > 50 | –
18 | CNc1[nH]nc2cc(-n3c(NC(C)C)nc4c(c3=O)C[C@@H](C)N(C(=O)c3ccc(Cl)c(Cl)c3)C4)ccc12 [Compound C627] | – | – | 0.12 | 33.6 | –
19 | CNC(=O)c1ccc(-n2c(NC(C)C)nc3c(c2=O)CCN(C(=O)c2ccc(Cl)c(Cl)c2)C3)cc1Cl [Compound C210, 2-chloro-4-[7-(3,4-dichlorobenzoyl)-4-oxo-2-[(propan-2-yl)amino]-5,6,7,8-tetrahydropyrido[3,4-d]pyrimidin-3(4H)-yl]-N-methylbenzamide] | 0.27 | > 50 | – | – | –
20 | CNC(=O)c1ccc(-n2c(NC(C)C)nc3c(c2=O)C[C@@H](C)N(C(=O)c2cc4c(OC(F)(F)F)cccc4[nH]2)C3)cc1 [Compound C587] | – | – | 0.09 | 9.2 | –
21 | CNC(=O)c1ccc(-n2c(NC(C)C)nc3c(c2=O)C[C@@H](C)N(C(=O)c2ccc(Cl)c(Cl)c2)C3)nc1 [Compound C304, 6-[(6R)-7-(3,4-dichlorobenzoyl)-6-methyl-4-oxo-2-[(propan-2-yl)amino]-5,6,7,8-tetrahydropyrido[3,4-d]pyrimidin-3(4H)-yl]-N-methylpyridine-3-carboxamide] | 0.07 | > 50 | – | – | –
22 | CC(C)Nc1nc2c(c(=O)n1-c1ccc(C(=O)NCCN3CCOCC3)cc1)C[C@@H](C)N(C(=O)c1ccc(Cl)c(Cl)c1)C2 [Compound C203, 4-[(6R)-7-(3,4-dichlorobenzoyl)-6-methyl-4-oxo-2-[(propan-2-yl)amino]-5,6,7,8-tetrahydropyrido[3,4-d]pyrimidin-3(4H)-yl]-N-[2-(morpholin-4-yl)ethyl]benzamide] | 0.15 | > 50 | – | – | –
23 | CCNc1nc2c(c(=O)n1-c1ccccc1OC)CCN(C(=O)c1ccc(Cl)c(Cl)c1)C2 [Compound C38, 7-(3,4-dichlorobenzoyl)-2-(ethylamino)-3-(2-methoxyphenyl)-5,6,7,8-tetrahydropyrido[3,4-d]pyrimidin-4(3H)-one] | 6.87 | > 50 | – | – | –
24 | CNC(=O)c1ccc(-n2c(N[C@H]3CCC34CCC4)nc3c(c2=O)C[C@@H](C)N(C(=O)c2ccc(Cl)c(Cl)c2)C3)cc1 (single isomer, unassigned) [Compound C346b] | – | – | 0.22 | > 50 | –
25 | CC(C)Nc1nc2c(c(=O)n1-c1ccc(S(C)(=O)=O)cc1)CCN(C(=O)c1ccc3ncoc3c1)C2 [Compound C151, 7-(1,3-benzoxazole-6-carbonyl)-3-[4-(methanesulfonyl)phenyl]-2-[(propan-2-yl)amino]-5,6,7,8-tetrahydropyrido[3,4-d]pyrimidin-4(3H)-one] | 10.7 | > 50 | – | – | –
26 | CNC(=O)c1ccc(-n2c(NC(C)C)nc3c(c2=O)C[C@@H](C)N(C(=O)c2ccc(Cl)c(Cl)c2)C3)cn1 [Compound C344] | – | – | – | – | EC50 ([1]; Hepatitis B virus, HepG2.117, 72 h): 0.15 µM; CC50 at 3 days (in vitro; 3-days incubation (unmarked values)): > 50 µM
27 | COc1ccc(CNc2nc3c(c(=O)n2-c2ccccc2F)CCN(C(=O)c2ccc(Cl)c(Cl)c2)C3)cc1 [Compound C14, 7-(3,4-dichlorobenzoyl)-3-(2-fluorophenyl)-2-{[(4-methoxyphenyl)methyl]amino}-5,6,7,8-tetrahydropyrido[3,4-d]pyrimidin-4(3H)-one] | 1 | > 50 | – | – | –
28 | CNC(=O)c1nnc(-n2c(NC(C)C)nc3c(c2=O)C[C@@H](C)N(C(=O)c2ccc(Cl)c(Cl)c2)C3)[nH]1 [Compound C374] | 1.49 | > 50 | – | – | –
29 | CC(C)Nc1nc2c(c(=O)n1-c1ccc(-c3ccnnc3)cc1)CCN(C(=O)c1ccc(Cl)c(Cl)c1)C2 [Compound C177, 7-(3,4-dichlorobenzoyl)-2-[(propan-2-yl)amino]-3-[4-(pyridazin-4-yl)phenyl]-5,6,7,8-tetrahydropyrido[3,4-d]pyrimidin-4(3H)-one] | 0.26 | 18.2 | – | – | –
30 | CNC(=O)c1ccc(-n2c(NC(C)C)nc3c(c2=O)C[C@@H](C)N(C(=O)c2cc(Cl)c(Cl)cc2OC)C3)cc1 [Compound C590] | – | – | 12.4 | > 50 | –
31 | COc1ccc(CNc2nc3c(c(=O)[nH]2)CC(C)N(C(=O)c2ccc(Cl)c(Cl)c2)C3)cc1 (centres unmarked) [Compound C63, 7-(3,4-dichlorobenzoyl)-2-{[(4-methoxyphenyl)methyl]amino}-6-methyl-5,6,7,8-tetrahydropyrido[3,4-d]pyrimidin-4(3H)-one] | 2.59 | 28.4 | – | – | –
